{Alexa488} = Alexa Fluor 488 (Invitrogen) label

Data set [1] has as its system detached leaves of glyphosate-resistant Palmer amaranth. The data set is described as follows: petiole uptake of fluorescently labelled ssDNA oligonucleotide into detached leaves (Example 9). Also on record: species or system Palmer amaranth (Amaranthus palmeri). The method, then:
Petioles of detached leaves of glyphosate-resistant Palmer amaranth were placed in 200 mM sucrose solution with fluorescently labelled ssDNA oligonucleotides (SEQ ID NO:15). Leaf images were taken by Bio-Rad PharosFX imager equipped with a 488 nm laser from 4 h up to 48 h after uptake through petiole. Leaves incubated with 200 mM sucrose alone served as control.

Data set [2] has as its system volunteer glyphosate-resistant corn plants. Briefly: synthetic Pol III gene dsDNA on volunteer glyphosate-resistant corn in soybean (Example 8). It counts as in vivo. The following applies: glyphosate 7 days after dsDNA; 15 days later. The source says: This example illustrates the utility of employing a synthetic Pol III gene in compositions and methods of this invention. With reference to SEQ ID NO:3 and FIG. 2, a synthetic Pol III gene is created using elements from an Arabidopsis thaliana U6 snRNA gene to provide a dsDNA molecule with two copies of RGCCCR elements (bold and underlined), an upstream sequence element (USE) having the sequence “[…]” (SEQ ID NO:4, bold and underlined), a TATA box (bold and underlined), a “G” nucleotide (bold and underlined), anti-sense DNA (italics) corresponding to a bacterial DNA encoding an EPSPS protein (see U.S. Pat. RE39,247) that imparts resistance to glyphosate herbicide when expressed in transgenic corn plants, an “[…]” element (SEQ ID NO:5, bold and underlined) embedded in the anti-sense DNA, an “[…]” element (SEQ ID NO:6, bold and underlined) followed by sense DNA (lower case) and a “TTTTTT” terminator element (SEQ ID NO:7, bold and underlined). A solution of 0.1 wt % SILWET L-77® brand organosilicone surfactant and a solution of multiple copies of the dsDNA molecule are sprayed onto leaves of volunteer glyphosate-resistant corn plants growing in a field of glyphosate-resistant soybean plants, followed 7 days later by treatment with Roundup WeatherMAX® brand glyphosate herbicide. […]

With “ACCCTCCACGACTGCCCTTT (DNA, 5' {Alexa488}, backbone not given here; listed as Amaranthus palmeri) [Anti-sense_PO1_488, ssDNA anti-sense to Amaranthus palmeri EPSPS]”, the “time of release from vascular tissue into cells” value in data set [1] (after treatment) turned out to be 8 h. Also, the “vascular uptake into leaf” value in data set [1] (petiole uptake in 200 mM sucrose, imaged 4 h to 48 h) is reported as “slightly time-dependent vascular uptake”.

B1: synthetic Pol III gene: dsDNA from Arabidopsis U6 snRNA gene elements with anti-sense and sense DNA of bacterial EPSPS (nucleic acid)
DNA: GGCCCATAGGCCTTTTTCTAAAATAGGCCCATTTAAGCTATTAACAATCTTCAAAAGTACCACATCGCTTAGGTAAAGAAAGCAGCTGAGTTTATATATGGTTAGAGACGAAGTAGTGATTGCGACGAGCGACGTCTCGCCCTCATCGCAATCCACGCCATTGAGCTTGAGGCCATTGGCGACGGCCGAGAGGCGGTCGCTTAAGATTAGCATGTCCTTGACGCGGAGTTCTTCCAGACCGTTCATCACGGTCGCCCCTTCCGCGAAGGCGGCGGCGACAGCGAGAATCGGATATTCGTCGATCATCGAAGGCGCGCGGTCTTCCGGCACCGTGACGCATAAACACGGTGCCGGAAGACCGCGCGCCTTCGATGATCGACGAATATCCGATTCTCGCTGTCGCCGCCGCCTTCGCGGAAGGGGCGACCGTGATGAACGGTCTGGAAGAACTCCGCGTCAAGGAAAGCGACCGCCTCTCGGCCGTCGCCAATGGCCTCAAGCTCAATGGCGTGGATTGCGATGAGGGCGAGACGTCGCTCGTCGTTTTTTTTGGCAAAAA
For B1, in data set [2], the “condition of soybean crop plants” value is recorded as “thriving” and the “condition of volunteer corn plants” value was “dead”.
